Assay results reported in patent publication US20050032713A1, “Platelet-activating factor antagonists as analgesic, anti-inflammatory, uterine contraction inhibiting, and anti-tumor agents” (priority 2002, published 2005).
Entries after “also recorded” stand apart in the source; their conditions may differ. *1 amine or outer side, *2 acyl side, *3 side chain or, on linkers, in order; H or OH if unused. Where a SMILES comes first, the peptide text is derived from it. Bridges are numbered along the chain shown (N, C = ends). Roman numbers before positions name the chains, in order. [ ]: non-standard residue; d: D form. Actinocin(9to1) = Cc1c2oc3c(C)ccc(C(=O)[*:1])c3nc-2c(C(=O)[*:2])c(N)c1=O; NMeV = CN[C@H](C(=O)O)C(C)C; Sar = CNCC(=O)O

Tests used:
Type in all cases: cell-based, rat
[1] = system: primary cortical astrocytes; assay: Effect of COX inhibitors on mc-PAF-induced PGE2 release from primary astrocytes (Example 3)
Procedure: Mc-PAF (Cayman Chemical, Ann Arbor, Mich.) was dissolved in ethanol at a stock concentration of 10 mM. Indomethacin, piroxicam, NS-398 (Biomol; Plymouth Meeting, Mass.), and SC-560 (Cayman Chemical) were dissolved in 45% hydroxy-β-cyclodextrin (HBC; Sigma, St. Louis, Mo.). Cells were serum-deprived for 24 hrs prior to experimental treatments to induce quiescence. Where treatment with inhibitors is indicated, these compounds were added 30 min prior to the addition of mc-PAF.
Direct assay of the PGE2 concentration in cell-conditioned medium was used as an index of PGE2 secretion by primary astrocytes. PGE2 levels were measured by ELISA according to manufacturer's instructions (Cayman Chemicals, Ann Arbor, Mich.), as described.
Results were derived from at least 3 separate experiments, assayed in duplicate or triplicate (n=6−8). Data were expressed as means+/−SEMs. Statistical analyses were performed using ANOVAs for comparisons between groups, followed by Fischer's PLSD post hoc comparisons by means contrast. p values <0.05 were considered statistically significant.

[2] = system: astrocyte-enriched cortical cell cultures; assay: PGE2 release (ELISA) from astrocyte-enriched cortical cell cultures exposed to PAF analogs, related lipids or AA; settings: for PGE2 release into the conditioned media: various concentrations; for concentration giving peak PGE2 release: higher and lower concentrations elicited less release
Procedure: (§1) All experimental protocols were approved by the Massachusetts Institute of Technology institutional review committee and meet the guidelines of the National Institutes of Health. Dissociated astrocytes were cultured from cortices of postnatal day 1-2 rat pups (as described by K. D. McCarthy, et al., Preparation of separate astroglial and oligodendroglial cell cultures from rat cerebral tissue, J. Cell Biol. 85 (1980) 890-902, with minor modifications R. K. K. Lee, et al., Metabolic glutamate receptors increase amyloid precursor protein processing in astrocytes: inhibition by cyclic AMP, J. Neurochem. 68 (1997) 1830-1835.) In brief, cells from dissociated cortices were plated onto poly-L-lysine coated 35- or 100 mm culture dishes. The initial culture media, minimal essential medium (MEM, Gibco-Life Technologies; Rockville, Md.) containing 15% horse serum (BioWhittaker; Walkersville, Md.), were aspirated 2-5 h after plating to remove unattached cells and debris, and replaced with MEM containing 5% fetal bovine serum (FBS, BioWhittaker; Walkersville, Md.). Half the medium was replaced with MEM/5% FBS twice weekly. Astrocytes were kept at 37° C. in a humidified 5% CO2/95% air incubator for 9-15 days, by which time the cultures were confluent and could be used for experiments.
(§2) Mc-PAF (Biomol; Plymouth Meeting, PA) was dissolved in methanol at a stock concentration of 10 mM. PAF-16, PAF-18, lyso-PAF, AA (Cayman Chemicals), lyso-PC and PC (Sigma) were dissolved in ethanol at stock concentrations of 10 mM. All stock solutions of lipids were stored at −80° C. and were used within 6 weeks of reconstitution. BN 52021 and CV 6209 (Biomol) were dissolved in ethanol. These PAF antagonists were stored at −20° C. in stock concentrations of 100 mM. BN 50730 (Biomeasure; Milford, Mass.) was dissolved in 45% hydroxy-B-cyclodextrin (HBC). All agents were diluted in warned serum-free medium prior to cell stimulation. Equal amounts of vehicle was added to control cells.
(§3) Cells used for all experiments were established in vitro 9-15 days prior to use in experiments and were over 95% confluent. Serum-containing media were changed every 3-4 days. Cells were serum-deprived 24 hours prior to experimental treatments. Where treatment with PAF antagonists is indicated, these compounds were added 30 minutes prior to the addition of other agents.
(§4) PGE2 levels were measured by ELISA according to manufacturer's instructions (Cayman Chemicals, Ann Arbor, Mich.). Since the amount of PGE2 in fresh medium was negligible, (J. Luo, et al., Transforming growth factor B1 regulates the expression of cyclooxygenase in cultured cortical astrocytes and neurons, J. Neurochem. 71 (1998) 526-534), direct assays of the PGE2 concentration in cell-conditioned medium was used as a measurement of PGE2 secretion by cultured cells. Results were derived from at least 3 separate experiments, assayed in duplicate or triplicate (n=6-8). The reliable detection limit of this assay (i.e. sensitivity) averaged 14+/−6 pg of PGE2.

[3] = system: astrocyte-enriched cortical cell cultures; assay: Effect of PAF antagonists on mc-PAF-, lyso-PAF- and AA-induced PGE2 release from astrocytes; settings: for mc-PAF-induced PGE2 release: antagonist added 30 min before mc-PAF (1 μM), 30 min, BN 50730 0.1-100 μM, BN 52021 and CV 6209 1-50 μM; for PGE2 release, antagonist administered alone: no mc-PAF
Procedure: as §1, §2, §3, §4

[4] = pre-treatment, actinomycin D 5 μg/ml, cyclohexamide 10 μg/ml, data not shown
[5] = various inhibitor concentrations (indomethacin 1, 10, and 50 μM), 30 min prior to mc-PAF (0.1 uM) for 30 min
[6] = 10, 1, 0.1, and 0.01 μM, 30 min

In the case of Cc1c2oc3c(C)ccc(C(=O)N[C@@H]4C(=O)N[C@H](C(C)C)C(=O)N5CCC[C@H]5C(=O)N(C)CC(=O)N(C)[C@@H](C(C)C)C(=O)O[C@@H]4C)c3nc-2c(C(=O)N[C@@H]2C(=O)N[C@H](C(C)C)C(=O)N3CCC[C@H]3C(=O)N(C)CC(=O)N(C)[C@@H](C(C)C)C(=O)O[C@@H]2C)c(N)c1=O [actinomycin D] (I: T[dV]P[Sar][NMeV] / II: T[dV]P[Sar][NMeV]; ester I:1-I:C, II:1-II:C; linker I:N-II:N via Actinocin(9to1)), the “mc-PAF-induced PGE2 release” value [1, 4] is reported as “had no effect”.

CS(=O)(=O)Nc1ccc([N+](=O)[O-])cc1OC1CCCCC1 [NS-398] was tested, and the “basal PGE2 release” value ([1]; NS-398 highest concentrations, 10 and 50 μM) was “prevented basal PGE2 release” and the “mc-PAF-induced PGE2 release” value [1, 5] was “completely abolished; also recorded: completely blocked”.

In the case of CCCCCCCCCCCCCCCCOC[C@@H](O)COP(=O)([O-])OCC[N+](C)(C)C [lyso-PAF], the “concentration at which PGE2 release was significantly increased” value ([2]; 30 min, 37° C.) is reported as 10 µM and the “PGE2 release into the conditioned media” value ([2]; 30 min, 37° C.) is reported as “concentration-dependent increases”.

In the case of CCCCC/C=C\C/C=C\C/C=C\C/C=C\CCCC(=O)O [AA, arachidonic acid], the PGE2 release ([2]; AA 0.01-10 μM, 30 minutes) is reported as “increased PGE2 release”, the “PGE2 release on co-administration with mc-PAF” value ([2]; high AA concentration 10 μM with mc-PAF, 30 min) is reported as “no synergism” and the “PGE2 release on co-administration with mc-PAF” value ([2]; low AA concentration 0.01 μM with mc-PAF (0.1, 1 or 10 μM), 30 min) is reported as “additive increase”.

CCCCCCCCCCCCCCCCOC[C@H](COP(=O)([O-])OCC[N+](C)(C)C)OC(C)=O [PAF-16] was tested, and the “PGE2 release into the conditioned media” value ([2]; 30 min, 37° C.) was “concentration-dependent increases” and the “concentration giving peak PGE2 release” value ([2]; 30 min) was 0.1 µM.

With COc1ccc2c(c1)c(CC(=O)O)c(C)n2C(=O)c1ccc(Cl)cc1 [indomethacin] the “basal PGE2 release” value ([1]; indomethacin 1, 10, and 50 μM) was “without affecting basal PGE2 release” and the “mc-PAF-induced PGE2 release” value [1, 5] was “attenuated; also recorded: completely blocked”.

CN1C(C(=O)Nc2ccccn2)=C(O)c2ccccc2S1(=O)=O [piroxicam] was tested, and the “mc-PAF-induced PGE2 release” value ([1]; piroxicam 50 μM, effect not statistically significant) was “attenuated some of this PGE2 release”, the “mc-PAF-induced PGE2 release” value ([1]; piroxicam 1 or 10 μM, 30 min prior to mc-PAF (0.1 uM)) was “had no effect” and the “mc-PAF-induced PGE2 release” value [1, 5] was “did not significantly do so; also recorded: minimal influence”.

With C[C@@H]1C[C@@H]([C@H](O)CC2CC(=O)NC(=O)C2)C(=O)[C@@H](C)C1 [cyclohexamide] the “mc-PAF-induced PGE2 release” value [1, 4] was “had no effect”.

With CCCCCCCCCCCCCCCCCCNC(=O)OCC(COC(=O)N(Cc1cccc[n+]1CC)C(C)=O)OC (stereo not drawn) [CV 6209] the “mc-PAF-induced PGE2 release” value [3] was “no significant effect; also recorded: do not attenuate”, the “mc-PAF-induced PGE2 release” value ([3]; listed as CV-6209) was “did not significantly influence” and the “AA-induced PGE2 release” value ([3]; antagonist added 30 min prior) was “had no effect”. For the same compound, the “lyso-PAF-induced PGE2 release” value ([3]; antagonist added 30 min prior) was “had no effect”, the “PGE2 release, antagonist administered alone” value [3] was “PGE2 release was increased” and the “PGE2 release, antagonist administered alone” value ([3]; listed as CV-6209) was “increased PGE2 release”.

With COc1ccc(-n2nc(C(F)(F)F)cc2-c2ccc(Cl)cc2)cc1 [SC-560] the “mc-PAF-induced PGE2 release” value [1, 5] was “did not significantly influence; also recorded: did not significantly do so; also recorded: minimal influence”.

In the case of phosphatidylcholine [PC], the PGE2 release [2, 6] is reported as “had no effect”.

For lyso-phosphatidylcholine [lyso-PC], the PGE2 release [2, 6] was “had no effect”.

CCCCCCCCCCCCCCCCCCOC[C@H](COP(=O)([O-])OCC[N+](C)(C)C)OC(C)=O [PAF-18] was tested, and the “PGE2 release into the conditioned media” value ([2]; 30 min, 37° C.) was “concentration-dependent increases” and the “concentration giving peak PGE2 release” value ([2]; 30 min) was 0.1 µM.
